Data reported in patent publication US9549941B2, “Compositions and methods for treating hepatitis C virus” (priority 2011, dated 2017).

How the values were obtained:
[1] = tested on: 1a-H77 sub-genomic replicon, NS5B S282T; experiment: microbe, parasite or virus in culture; type: cell-based, hepatitis C virus
Procedure: (Lam et al., J. Virology (2011) 85(23): 12334-12342; Lam et al., Antimicrob. Agents Chemother. (2012) 56(6): 3359-3368.) S282T mutations in NS5B were created by site-directed mutagenesis in 1a-H77, 1b con-1, and 2a JFH1 sub-genomic replicons. 1b con-1-based chimeric replicons containing 2b, 3a, 4a, 5a, or 6a NS5B were also engineered to harbor the S282T mutation. […] Relative percentages of mutant and WT were assessed by deep sequencing.

HCV GT2 or GT3 = experiment: ELECTRON Phase 2a clinical study, treatment-naive GT2/GT3 (Groups 1-6, 10); type: in vivo, human; settings: for HCV RNA (log10 IU/mL), mean: GT2/GT3 Tx-naive, N=10; for HCV RNA below LOD, %: Genotype 2/3 Treatment Naive (Groups 1-6); for % < LOD / n/N < LOD: Groups 1-5, GT2/GT3 Tx-naive
Procedure: In comparison, only 60% of treatment-naïve GT2/GT3 HCV patients receiving GS-7977 monotherapy achieved SVR-12.
Group 1: GS-7977 (400 mg QD) with RBV (1000/1200 mg BID) for 12 weeks (no peginterferon) (GT2/GT3 treatment-naïve); and
Groups 2, 3, 4: GS-7977 (400 mg QD) with RBV (1000/1200 mg BID) for 12 weeks and PEG (180 μg weekly) weeks 1-4 only/PEG (180 μg weekly) weeks 1-8 only/PEG (180 μg weekly) weeks 1-12 (GT2/GT3 treatment-naïve).
In Part 2 of the ELECTRON trial, an additional 30 patients were enrolled in exploratory regimens of GS-7977 monotherapy and abbreviated durations of total therapy with the combination of GS-7977, RBV and PEG:
Group 5: GS-7977 (400 mg QD) monotherapy for 12 weeks (GT2/GT3 treatment-naïve);
Group 6: GS-7977 (400 mg QD) with PEG (180 μg weekly) and RBV (1000/1200 mg BID) for 8 weeks (GT2/GT3 treatment-naïve); and
Group 10: GS-7977 (400 mg QD) with RBV (1000/1200 mg BID) for 8 weeks (GT2/GT3 treatment-naïve); and […]

[2] = ELECTRON adverse events (Groups 1,7,8,9 N=70; Groups 2,3,4 N=30; Group 5 N=10; Group 6 N=10); type: in vivo, human; settings: subjects with event
[3] = ELECTRON Grade 3/4 hematologic (laboratory) abnormalities; type: in vivo, human; settings: Groups 1-6 (GT2/GT3 Tx-naive)
HCV NS5B S282T = experiment: GS-7977 resistance in Phase 2 clinical studies, population and deep sequencing of NS5B; type: in vivo, human; settings: one GT2b patient, relapse 4 weeks after 12 weeks of monotherapy

Structure (SMILES): CC(C)OC(=O)[C@H](C)N[P@](=O)(OC[C@H]1O[C@@H](n2ccc(=O)[nH]c2=O)[C@](C)(F)[C@@H]1O)Oc1ccccc1 [GS-7977, (S)-isopropyl 2-(((S)-(((2R,3R,4R,5R)-5-(2,4-dioxo-3,4-dihydropyrimidin-1(2H)-yl)-4-fluoro-3-hydroxy-4-methyltetrahydrofuran-2-yl)methoxy)(phenoxy)phosphoryl)amino)propanoate]
- EC50 ([1]; Hepatitis C virus, read-out: EC50 S282T): 253 nM
- Fold Change ([1]; genotype 1a, S282T from corresponding wild-type): 10.1
- HCV RNA (log10 IU/mL), mean (HCV GT2 or GT3; D1): 5.74 log10 IU/mL
- HCV RNA (log10 IU/mL), mean (HCV GT2 or GT3; D1 (6 hr) after dosing): 5.63 log10 IU/mL
- HCV RNA (log10 IU/mL), mean (HCV GT2 or GT3; D1 (12 hr) after dosing): 4.98 log10 IU/mL
- HCV RNA (log10 IU/mL), mean (HCV GT2 or GT3; D2): 3.75 log10 IU/mL
- HCV RNA (log10 IU/mL), mean (HCV GT2 or GT3; D3): 2.62 log10 IU/mL
- HCV RNA (log10 IU/mL), mean (HCV GT2 or GT3; T = 0 (initial screening values)): 6.08 log10 IU/mL
- HCV RNA (log10 IU/mL), mean (HCV GT2 or GT3; W1): 1.56 log10 IU/mL
- HCV RNA (log10 IU/mL), mean (HCV GT2 or GT3; W2): 1.22 log10 IU/mL
- HCV RNA (log10 IU/mL), mean (HCV GT2 or GT3; W3): 1.15 log10 IU/mL
- HCV RNA (log10 IU/mL), mean (HCV GT2 or GT3; W4): 1.15 log10 IU/mL
- HCV RNA (log10 IU/mL), mean (HCV GT2 or GT3; W5): 1.15 log10 IU/mL
- HCV RNA (log10 IU/mL), mean (HCV GT2 or GT3; W6): 1.15 log10 IU/mL
- HCV RNA (log10 IU/mL), mean (HCV GT2 or GT3; W7): 1.15 log10 IU/mL
- HCV RNA (log10 IU/mL), mean (HCV GT2 or GT3; W8): 1.15 log10 IU/mL
- HCV RNA (log10 IU/mL), mean (HCV GT2 or GT3; W9): 1.15 log10 IU/mL
- HCV RNA (log10 IU/mL), mean (HCV GT2 or GT3; W10): 1.15 log10 IU/mL
- HCV RNA (log10 IU/mL), mean (HCV GT2 or GT3; W11): 1.15 log10 IU/mL
- HCV RNA (log10 IU/mL), mean (HCV GT2 or GT3; W12 (end of treatment)): 1.15 log10 IU/mL
- HCV RNA (log10 IU/mL), mean (HCV GT2 or GT3; W14 (after 12-week treatment)): 1.66 log10 IU/mL
- HCV RNA (log10 IU/mL), mean (HCV GT2 or GT3; W16 (after 12-week treatment)): 2.95 log10 IU/mL
- HCV RNA (log10 IU/mL), mean (HCV GT2 or GT3; W20 (after 12-week treatment)): 3.12 log10 IU/mL
- HCV RNA (log10 IU/mL), mean (HCV GT2 or GT3; W24 (12 weeks after treatment)): 3.17 log10 IU/mL
- HCV RNA below LOD, % (HCV GT2 or GT3; SVR-4): (60) %
- HCV RNA below LOD, % (HCV GT2 or GT3; SVR-12): (60) %
- HCV RNA below LOD, % (HCV GT2 or GT3; Time 1 wk): (50) %
- HCV RNA below LOD, % (HCV GT2 or GT3; Time 2 wks): (80) %
- HCV RNA below LOD, % (HCV GT2 or GT3; Time 3 wks): (100) %
- HCV RNA below LOD, % (HCV GT2 or GT3; Time 4 wks): (100) %
- HCV RNA below LOD, % (HCV GT2 or GT3; Time 8 wks): (100) %
- HCV RNA below LOD, % (HCV GT2 or GT3; Time 12 wks): (100) %
- % < LOD (HCV GT2 or GT3; SVR-4): 60%
- n/N < LOD (HCV GT2 or GT3; SVR-4): 6/10
- % < LOD (HCV GT2 or GT3; SVR-8): 60%
- n/N < LOD (HCV GT2 or GT3; SVR-8): 6/10
- % < LOD (HCV GT2 or GT3; SVR-12): 60%
- n/N < LOD (HCV GT2 or GT3; SVR-12): 6/10
- % < LOD (HCV GT2 or GT3; SVR-24): 60%
- n/N < LOD (HCV GT2 or GT3; SVR-24): 6/10
- % < LOD (HCV GT2 or GT3; Time 0 wks): 0%
- % < LOD (HCV GT2 or GT3; Time 4 wks): 100%
- n/N < LOD (HCV GT2 or GT3; Time 4 wks): 10/10
- % < LOD (HCV GT2 or GT3; Time 8 wks): 100%
- n/N < LOD (HCV GT2 or GT3; Time 8 wks): 10/10
- % < LOD (HCV GT2 or GT3; Time 12 wks): 100%
- n/N < LOD (HCV GT2 or GT3; Time 12 wks): 10/10
- SVR-24 (HCV GT2 or GT3; treatment-naive GT2/GT3, 12 weeks GS-7977 400 mg QD): 60%
- SVR-12 (HCV GT2 or GT3; treatment-naive GT2/GT3 HCV patients, GS-7977 400 mg QD): 60%
- Abdominl Pain: n [2]: 0
- Alopecia: n [2]: 0
- Anemia: n [2]: 0
- Arthralgia: n [2]: 0
- Axillary Pain: % [2]: (20) %
- Axillary Pain: n [2]: 2
- Back Pain: % [2]: (10) %
- Back Pain: n [2]: 1
- Blood and Lymphatic System Disorders: n [2]: 0
- Chills: n [2]: 0
- Decreased Appetite: n [2]: 0
- Diarrhoea: n [2]: 0
- Dizziness Postural: n [2]: 0
- Dizziness: % [2]: (20) %
- Dizziness: n [2]: 2
- Dry Skin: n [2]: 0
- Dyspnoea: n [2]: 0
- Fatigue: % [2]: (30) %
- Fatigue: n [2]: 3
- Flatulence: n [2]: 0
- Gastrointestinal Disorders: % [2]: (80) %
- Gastrointestinal Disorders: n [2]: 8
- General Disorders and Administration Site Conditions: % [2]: (80) %
- General Disorders and Administration Site Conditions: n [2]: 8
- Headache: % [2]: (80) %
- Headache: n [2]: 8
- Infections and Infestations: % [2]: (50) %
- Infections and Infestations: n [2]: 5
- Injection Site Erythema: n [2]: 0
- Insomnia: % [2]: (60) %
- Insomnia: n [2]: 6
- Irritability: % [2]: (10) %
- Irritability: n [2]: 1
- Metabolism and Nutrition Disorders: n [2]: 0
- Musculoskeletal and Connective Tissue Disorders: % [2]: (20) %
- Musculoskeletal and Connective Tissue Disorders: n [2]: 2
- Myalgia: % [2]: (10) %
- Myalgia: n [2]: 1
- Nausea: % [2]: (30) %
- Nausea: n [2]: 3
- Nervous System Disorders: % [2]: (90) %
- Nervous System Disorders: n [2]: 9
- Oropharyngeal Pain: % [2]: (20) %
- Oropharyngeal Pain: n [2]: 2
- Pain: n [2]: 0
- Pruritus: n [2]: 0
- Psychiatric Disorders: % [2]: (60) %
- Psychiatric Disorders: n [2]: 6
- Pyrexia: n [2]: 0
- Rash: % [2]: (10) %
- Rash: n [2]: 1
- Respiratory, Thoracic and Mediastinal Disorders: % [2]: (30) %
- Respiratory, Thoracic and Mediastinal Disorders: n [2]: 3
- Skin and Subcutaneous Tissue Disorders: % [2]: (30) %
- Skin and Subcutaneous Tissue Disorders: n [2]: 3
- Upper Respiratory Tract Infection: % [2]: (20) %
- Upper Respiratory Tract Infection: n [2]: 2
- ≧1 AE: % [2]: (100) %
- ≧1 AE: n [2]: 10
- Alanine aminotransferase Grade 3: n [3]: 0
- Hemoglobin Grade 3: n [3]: 0
- INR Grade 3: n [3]: 0
- Lymphocytes Grade 3: n [3]: 0
- Lymphocytes Grade 4: % [3]: 10%
- Lymphocytes Grade 4: n [3]: 1
- Neutropenia Grade 3: n [3]: 0
- Neutropenia Grade 4: n [3]: 0
- White blood cells Grade 3: n [3]: 0
- S282T at relapse by deep sequencing (HCV NS5B S282T): 99%
